# According to US4096252A, “4-Trifluoromethylbenzoic acid derivatives as thromboembolic agents” (priority 1976, dated 1978):
# Where “and” joins values, the source holds several entries; their conditions need not be identical. Equal entries are not always repeated. Where two headings read alike, the source gives them in different places.
# Key:
# [1] = system: human platelet aggregation; assay: In vitro inhibition of human platelet aggregation (Born and Cross method); assay type: cell-based
# Protocol: Platelet aggregation was measured according to the method of Born and Cross (8) by using rat and human plasma. The results are summarized below in Tables I and II.
# Key : PC = Plasma Concentration: PAI = Platelet Aggregation
# *The percent of inhibition was calculated using the method described by
# McKenzie (Proc. Soc. Exp. Biol. Med. 137: 662, 1971).
# [2] = system: human platelet aggregation; assay: Human platelet aggregation induced by collagen after oral administration to humans; assay type: in vivo; conditions: collagen 33.3 μg/m, one value per human; for y (collagen-induced aggregation curve): decrease vs control = inhibition; for delay (collagen-induced aggregation curve) / x (collagen-induced aggregation curve): increase vs control = inhibition
# Protocol: The significance of the parameters employed in Table IV (x, y and delay) is indicated; and
# (§1) In the in vivo tests on humans, the two selected compounds were administered per os during six consecutive days at equimolar doses: 200 mg three times a day of 2-acetoxy-4-trifluoromethylbenzoic acid and 248 mg three times a day of 2-phosphonoxy-4-trifluoromethylbenzoic acid.
# (§2) Blood was collected on the first, fourth and seventh day of the test and the platelet aggregation induced by ADP, epinephrine and collagen was determined according to the above-mentioned Born method.
# (§3) EFFECT OF 2-ACETOXY-4-TRIFLUOROMETHYLBENZOIC ACID
# (§4) AND 2-PHOSPHONOXY-4-TRIFLUOROMETHYLBENZOIC
# ACID ON PLATELET AGGREGATION INDUCED BY
# COLLAGEN AFTER ORAL ADMINISTRATION TO HUMANS*.
# *An increase of delay time and x and a decrease of y with respect to
# control indicate an inhibitory effect on platelet aggregation (see FIG.
# [3] = system: human platelet aggregation; assay: Human platelet aggregation induced by ADP and epinephrine after oral administration to humans; assay type: in vivo; conditions: Tables III and IV
# Protocol: as §1, §2, §3, §4
# ACID ON PLATELET AGGREGATION INDUCED BY ADP AND
# EPINEPHRINE AFTER ORAL ADMINISTRATION TO HUMANS*
# *The figures express the concentration (μM) that produces irreversible
# rat platelet aggregation = assay: In vitro inhibition of rat platelet aggregation (Born and Cross method); assay type: cell-based; conditions: for inhibition at 830 µM / inhibition at 2080 µM / inhibition at 4150 µM / inhibition at 8300 µM: Rattus norvegicus, Platelet, rat plasma; for inhibition at 830 µM: plasma concentration 0.83×10^-3 molar; for inhibition at 2080 µM: plasma concentration 2.08×10^-3 molar; for inhibition at 4150 µM: plasma concentration 4.15×10^-3 molar; for inhibition at 8300 µM: plasma concentration 8.30×10^-3 molar
# Protocol: Platelet aggregation was measured according to the method of Born and Cross (8) by using rat and human plasma.
# [4] = system: blood coagulation factors and fibrinolysis; assay type: in vivo, human; conditions: oral; for Euglobin lysis time: Von Kaulas's test / Activated kaolin test / Activated partial thromboplastin test: APTI / Howell's test / Plasma prothrombine test: Quick test / Serum prothrombin time / Bleeding time, Duke test / Clotting time / Thromboelastogram K / Thromboelastogram r / Hematocrit / Platelet count: mean ± s.e.m.; for Euglobin lysis time: Von Kaulas's test: decrease vs control = drug effect; for Activated kaolin test / Activated partial thromboplastin test: APTI / Howell's test / Plasma prothrombine test: Quick test / Serum prothrombin time: decrease vs control = inhibitory effect; for Bleeding time, Duke test / Clotting time / Thromboelastogram K / Thromboelastogram r: increase vs control = inhibitory effect; for anticoagulant action (in words) / blood fibrinolytic activity (in words): humans; for Clot retraction / Degradation products of fibrinogen: DPF / Parrot's test / Tourniquet test: days not separated
# Protocol: The values r and k (in parameter 15 of Table V) correspond to blood (b). Their significance appears from the Figure.
# as §1, §2
# The potential anticoagulant and fibrinolytic activity of the claimed compounds has therefore likewise been investigated. For this purpose, with the same blood samples used for the determination of in vivo antiaggregating action on humans, the following parameters were examined: clotting time, bleeding time (Duke test), tourniquet test, Parrot's test, plasma prothrombine test (Quick test), activated partial thromboplastin test (APTT), activated Kaolin test, Howell's test, serum prothrombin time, euglobulin lysis time, Von Kaula's test, degradation products of fibrinogen (DPF), platelet count, clot retraction, hematocrit and thromboelastogram.
# EFFECT OF 2-ACETOXY-4-TRIFLUOROMETHYLBENZOIC ACID AND 2-PHOSPHONOXY-4-TRIF
# ZOIC ACID ON BLOOD COAGULATION FACTORS AND FIBRINOLYSIS*.
# treated with 2-acetoxy-4-trifluoromethylbenzoic acid and on 6 humans
# treated with 2-phos phonoxy-4-trifluoromethylbenzoic acid. An increase of
# the mean values (±s.e.m.) of parameters 1 and 2 or a decrease of
# parameters 5,6,7,8,9,10 and 11 with respect to control, mean an inhibitor
# effec of drugs on the blood coagulation and fibrinolysis.
# **An increase of r and k values with respect to control, indicates an
# inhibitory effect of the drugs on blood coagulation and also on platelet
# aggregation. These figures are indicated in FIG. 2 which corresponds to a
# normal thromboelastogram.
# [5] = ADP 4.1×10^-6 M, read-out: Platelet Aggregation Inhibition (PAI)
# [6] = Collagen 33.3 μg/ml, read-out: Platelet Aggregation Inhibition (PAI)
# [7] = read-out: Platelet Aggregation Inhibition (PAI), ADP 4.1×10^-6 M
# [8] = read-out: Platelet Aggregation Inhibition (PAI), Collagen 33.3 μg/ml
structure (smiles),measurement,setting,value
CC(=O)Oc1cc(C(F)(F)F)ccc1C(=O)O [2-acetoxy-4-trifluoromethylbenzoic acid],inhibition at 6250 µM,"[1]; ADP 1.6×10^-6 M, plasma concentration 6.25×10^-3 molar, read-out: Platelet Aggregation Inhibition (PAI)",22.5%
same,inhibition at 8300 µM,"[1]; ADP 1.6×10^-6 M, plasma concentration 8.30×10^-3 molar, read-out: Platelet Aggregation Inhibition (PAI)",38.6%
same,inhibition at 4100 µM,"[1]; Collagen 33.3 mcg/ml, plasma concentration 4.10×10^-3 molar, read-out: Platelet Aggregation Inhibition (PAI)",37.5%
same,inhibition at 8300 µM,"[1]; Collagen 33.3 mcg/ml, plasma concentration 8.30×10^-3 molar, read-out: Platelet Aggregation Inhibition (PAI)",62%
same,inhibition at 17000 µM,"[1]; Epinephrine 1.4×10^-6 M, plasma concentration 17.0×10^-3 molar, read-out: Platelet Aggregation Inhibition (PAI)",74%
same,y (collagen-induced aggregation curve),[2]; 4th day,41 mm and 45 mm
same,delay (collagen-induced aggregation curve),[2]; 4th day,60 xc and 72 xc
same,x (collagen-induced aggregation curve),[2]; 4th day,22 mm and 24 mm and 17 mm and 25 mm
same,delay (collagen-induced aggregation curve),[2]; 7th day,108 xc and 60 xc and 96 xc and 72 xc and 84 xc
same,in vivo action on human platelet aggregation (in words),[3],far more effective compound
same,inhibition at 830 µM,rat platelet aggregation; [5],26%
same,inhibition at 2080 µM,rat platelet aggregation; [5],37.5%
same,inhibition at 4150 µM,rat platelet aggregation; [5],51.9%
same,inhibition at 8300 µM,rat platelet aggregation; [5],93.7%
same,inhibition at 4150 µM,rat platelet aggregation; [6],34.5%
same,inhibition at 8300 µM,rat platelet aggregation; [6],52.7%
same,Euglobin lysis time: Von Kaulas's test,[4]; 4th day,140.0 ± 12.3 min
same,Activated kaolin test,[4]; 4th day,0.797±0.03
same,Activated partial thromboplastin test: APTI,[4]; 4th day,0.720±0.03
same,Howell's test,[4]; 4th day,0.723±0.04
same,Plasma prothrombine test: Quick test,[4]; 4th day,0.938±0.02
same,Serum prothrombin time,[4]; 4th day,38.8 ± 2.7 s
same,"Bleeding time, Duke test",[4]; 4th day,133.0 ± 19.3 s
same,Clotting time,[4]; 4th day,521.6 ± 29.7 s
same,Thromboelastogram K,[4]; 4th day,24.6±1.6 cm
same,Thromboelastogram r,[4]; 4th day,19.6±1.2 cm
same,Euglobin lysis time: Von Kaulas's test,[4]; 7th day,136.1 ± 11.5 min
same,Activated kaolin test,[4]; 7th day,0.890±0.02
same,Activated partial thromboplastin test: APTI,[4]; 7th day,0.890±0.03
same,Howell's test,[4]; 7th day,0.807±0.04
same,Plasma prothrombine test: Quick test,[4]; 7th day,0.933±0.02
same,Serum prothrombin time,[4]; 7th day,37.3 ± 3.9 s
same,"Bleeding time, Duke test",[4]; 7th day,116.0 ± 13.8 s
same,Clotting time,[4]; 7th day,526.6 ± 25.6 s
same,Thromboelastogram K,[4]; 7th day,22.1±1.5 cm
same,Thromboelastogram r,[4]; 7th day,21.6±3.6 cm
same,anticoagulant action (in words),[4],exert an anticoagulant action
same,blood fibrinolytic activity (in words),[4],increase of the blood fibrinolytic activity
same,Clot retraction,[4],NEGATIVE
same,Degradation products of fibrinogen: DPF,[4],NEGATIVE
same,Parrot's test,[4],POSITIVE IN TWO HUMANS
same,Tourniquet test,[4],NEGATIVE
"CNC[C@H](O)c1ccc(O)c(O)c1 [epinephrine, reference compound]",influence on rat platelets,rat platelet aggregation; epinephrine as aggregating agent,no
O=C(O)c1ccc(C(F)(F)F)cc1OP(=O)(O)O [2-phosphonoxy-4-trifluoromethylbenzoic acid],inhibition at 6250 µM,"[1]; read-out: Platelet Aggregation Inhibition (PAI), ADP 1.6×10^-6 M, plasma concentration 6.25×10^-3 molar",56.6%
same,inhibition at 8300 µM,"[1]; read-out: Platelet Aggregation Inhibition (PAI), ADP 1.6×10^-6 M, plasma concentration 8.30×10^-3 molar",60.8%
same,inhibition at 4100 µM,"[1]; read-out: Platelet Aggregation Inhibition (PAI), Collagen 33.3 mcg/ml, plasma concentration 4.10×10^-3 molar",0%
same,inhibition at 8300 µM,"[1]; read-out: Platelet Aggregation Inhibition (PAI), Collagen 33.3 mcg/ml, plasma concentration 8.30×10^-3 molar",12.6%
same,inhibition at 17000 µM,"[1]; read-out: Platelet Aggregation Inhibition (PAI), Epinephrine 1.4×10^-6 M, plasma concentration 17.0×10^-3 molar",59%
same,y (collagen-induced aggregation curve),[2]; 4th day,49 mm and 42 mm and 36 mm and 37 mm and 41 mm
same,delay (collagen-induced aggregation curve),[2]; 4th day,36 xc and 24 xc and 48 xc
same,x (collagen-induced aggregation curve),[2]; 4th day,14 mm and 16 mm and 17 mm and 22 mm and 18 mm
same,delay (collagen-induced aggregation curve),[2]; 7th day,48 xc and 24 xc and 36 xc
same,x (collagen-induced aggregation curve),[2]; 7th day,13 mm and 14 mm and 15 mm and 23 mm and 12 mm
same,in vivo action on human platelet aggregation (in words),[3],only a slight in vivo action on human platelet aggregation
same,inhibition at 830 µM,rat platelet aggregation; [7],11.2%
same,inhibition at 2080 µM,rat platelet aggregation; [7],23.1%
same,inhibition at 4150 µM,rat platelet aggregation; [7],57.5%
same,inhibition at 8300 µM,rat platelet aggregation; [7],69.8%
same,inhibition at 4150 µM,rat platelet aggregation; [8],45.5%
same,inhibition at 8300 µM,rat platelet aggregation; [8],94.5%
same,Hematocrit,[4]; 4th day,42.0±1.0
same,Platelet count,[4]; 4th day,253.3±10.5 per mm^3 ×10^3
same,Euglobin lysis time: Von Kaulas's test,[4]; 4th day,145.1 ± 9.3 min
same,Activated kaolin test,[4]; 4th day,0.768±0.05
same,Activated partial thromboplastin test: APTI,[4]; 4th day,0.823±0.04
same,Howell's test,[4]; 4th day,0.873
same,Plasma prothrombine test: Quick test,[4]; 4th day,0.966±0.02
same,Serum prothrombin time,[4]; 4th day,34.8 ± 2.6 s
same,"Bleeding time, Duke test",[4]; 4th day,155.0 ± 19.6 s
same,Clotting time,[4]; 4th day,527.5 ± 30.8 s
same,Thromboelastogram K,[4]; 4th day,25.3±2.7 cm
same,Thromboelastogram r,[4]; 4th day,17.8±2.0 cm
same,Hematocrit,[4]; 7th day,45.0±1.4
same,Platelet count,[4]; 7th day,223.3±12.8 per mm^3 ×10^3
same,Euglobin lysis time: Von Kaulas's test,[4]; 7th day,136.6 ± 9.0 min
same,Activated kaolin test,[4]; 7th day,0.960±0.04
same,Activated partial thromboplastin test: APTI,[4]; 7th day,0.960±0.01
same,Howell's test,[4]; 7th day,0.793±0.07
same,Plasma prothrombine test: Quick test,[4]; 7th day,0.986±0.02
same,Serum prothrombin time,[4]; 7th day,33.0 ± 1.5 s
same,"Bleeding time, Duke test",[4]; 7th day,112.5 ± 10.8 s
same,Clotting time,[4]; 7th day,520.0 ± 28.6 s
same,Thromboelastogram K,[4]; 7th day,19.9±1.9 cm
same,Thromboelastogram r,[4]; 7th day,15.0±1.3 cm
same,anticoagulant action (in words),[4],exert an anticoagulant action
same,blood fibrinolytic activity (in words),[4],increase of the blood fibrinolytic activity
same,Clot retraction,[4],NEGATIVE
same,Degradation products of fibrinogen: DPF,[4],NEGATIVE
same,Parrot's test,[4],POSITIVE IN FOUR HUMANS
same,Tourniquet test,[4],NEGATIVE
